Test results as given in patent US20150105252A1, “SUBSTITUTED PYRAZOLES AS HERBICIDES” (E I DU PONT DE NEMOURS AND COMPANY, priority 2013, published 2015).

Columns and labels:
Experiment in all cases: Test C postemergence
blackgrass = assay type: in vivo, Alopecurus myosuroides; conditions: for Plant response rating (scale of 0 to 100 where 0 is no effect and 100 is complete control), Blackgrass: Postemergence, 31 g ai/ha, visually evaluated after 13 to 15 days; for Blackgrass plant response rating / Plant response rating, Blackgrass: postemergence; for Blackgrass plant response rating: 62 g ai/ha, scale 0 to 100
Summary of the method: (§1)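 Pre- and postemergence greenhouse screen; vehicle was a non-phytotoxic solvent mix with surfactant. Preemergence: treatment applied right after sowing into loam and sand. Postemergence: treated at 1–4 leaves. Visual rating at 13–15 days, 100 = complete control.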

johnsongrass = assay type: in vivo, Sorghum halepense; conditions: for Plant response rating (scale of 0 to 100 where 0 is no effect and 100 is complete control), Johnsongrass: Postemergence, 31 g ai/ha, visually evaluated after 13 to 15 days; for Johnsongrass plant response rating / Plant response rating, Johnsongrass: postemergence; for Johnsongrass plant response rating: 62 g ai/ha, scale 0 to 100
Summary of the method: as §1

waterhemp = assay type: in vivo, Amaranthus rudis; conditions: postemergence, 250 g ai/ha; scale 0 to 100 (0 no effect, 100 complete control)
Summary of the method: as §1

nutsedge, yellow = assay type: in vivo, Cyperus esculentus; conditions: for Plant response rating (scale of 0 to 100 where 0 is no effect and 100 is complete control), Nutsedge, Yellow: Postemergence, 31 g ai/ha, visually evaluated after 13 to 15 days; for Nutsedge, Yellow plant response rating / Plant response rating, Nutsedge, Yellow: postemergence; for Nutsedge, Yellow plant response rating: 62 g ai/ha, scale 0 to 100
Summary of the method: as §1

ragweed = assay type: in vivo, Ambrosia elation; conditions: postemergence
Summary of the method: as §1

pigweed = assay type: in vivo, Amaranthus retroflexus; conditions: postemergence; for Pigweed plant response rating: 62 g ai/ha, scale 0 to 100
Summary of the method: as §1

chickweed = assay type: in vivo, Stellaria media; conditions: for Plant response rating (scale of 0 to 100 where 0 is no effect and 100 is complete control), Chickweed: Postemergence, 31 g ai/ha, visually evaluated after 13 to 15 days; for Chickweed plant response rating / Plant response rating, Chickweed: postemergence; for Chickweed plant response rating: 62 g ai/ha, scale 0 to 100
Summary of the method: as §1

kochia = assay type: in vivo, Kochia scoparia; conditions: for Plant response rating (scale of 0 to 100 where 0 is no effect and 100 is complete control), Kochia: Postemergence, 31 g ai/ha, visually evaluated after 13 to 15 days; for Kochia plant response rating / Plant response rating, Kochia: postemergence; for Kochia plant response rating: 62 g ai/ha, scale 0 to 100
Summary of the method: as §1

barnyardgrass = assay type: in vivo, Echinochloa crus-galli; conditions: for Plant response rating (scale of 0 to 100 where 0 is no effect and 100 is complete control), Barnyardgrass: Postemergence, 31 g ai/ha, visually evaluated after 13 to 15 days; for Barnyardgrass plant response rating / Plant response rating, Barnyardgrass: postemergence; for Barnyardgrass plant response rating: 62 g ai/ha, scale 0 to 100
Summary of the method: as §1

foxtail, giant = assay type: in vivo, Setaria faberii; conditions: for Plant response rating (scale of 0 to 100 where 0 is no effect and 100 is complete control), Foxtail, Giant: Postemergence, 31 g ai/ha, visually evaluated after 13 to 15 days; for Foxtail, Giant plant response rating / Plant response rating, Foxtail, Giant: postemergence; for Foxtail, Giant plant response rating: 62 g ai/ha, scale 0 to 100
Summary of the method: as §1

morningglory = assay type: in vivo, Ipomoea coccinea; conditions: for Plant response rating (scale of 0 to 100 where 0 is no effect and 100 is complete control), Morningglory: Postemergence, 31 g ai/ha, visually evaluated after 13 to 15 days; for Morningglory plant response rating / Plant response rating, Morningglory: postemergence; for Morningglory plant response rating: 62 g ai/ha, scale 0 to 100
Summary of the method: as §1

lambsquarters = assay type: in vivo, Chenopodium album; conditions: for Plant response rating (scale of 0 to 100 where 0 is no effect and 100 is complete control), Lambsquarters: Postemergence, 31 g ai/ha, visually evaluated after 13 to 15 days; for Lambsquarters plant response rating / Plant response rating, Lambsquarters: postemergence; for Lambsquarters plant response rating: 62 g ai/ha, scale 0 to 100
Summary of the method: as §1

soybean = assay type: in vivo, Glycine max; conditions: postemergence; for Plant response rating, Soybean: 250 g ai/ha, scale 0 to 100 (0 no effect, 100 complete control); for Soybean plant response rating: 125 g ai/ha, scale 0 to 100, 0 no effect, 100 complete control
Summary of the method: as §1

oat, wild = assay type: in vivo, Avena fatua; conditions: for Plant response rating (scale of 0 to 100 where 0 is no effect and 100 is complete control), Oat, Wild: Postemergence, 31 g ai/ha, visually evaluated after 13 to 15 days; for Oat, Wild plant response rating / Plant response rating, Oat, Wild: postemergence; for Oat, Wild plant response rating: 62 g ai/ha, scale 0 to 100
Summary of the method: as §1

oilseed rape = assay type: in vivo, Brassica napus; conditions: postemergence; for Oilseed Rape plant response rating: 62 g ai/ha, scale 0 to 100
Summary of the method: as §1

ryegrass, Italian = assay type: in vivo, Lolium multiflorum; conditions: postemergence
Summary of the method: as §1

wheat = assay type: in vivo, Triticum aestivum; conditions: postemergence; for Plant response rating, Wheat: 250 g ai/ha, scale 0 to 100 (0 no effect, 100 complete control)
Summary of the method: as §1

[1] = 250 g ai/ha, scale 0 to 100 (0 no effect, 100 complete control)
[2] = 125 g ai/ha, scale 0 to 100, 0 no effect, 100 complete control

CCNC(=O)c1cc(CC)n(Cc2ccnc(C(F)(F)F)c2)n1 [Compound 196]
Plant response rating (scale of 0 to 100 where 0 is no effect and 100 is complete control), Blackgrass (blackgrass): 20 | Blackgrass plant response rating (blackgrass): 15 | Plant response rating, Blackgrass (blackgrass; [1]): 15 | Plant response rating, Blackgrass (blackgrass; [2]): 5 | Plant response rating (scale of 0 to 100 where 0 is no effect and 100 is complete control), Johnsongrass (johnsongrass): 0 | Johnsongrass plant response rating (johnsongrass): 5 | Plant response rating, Johnsongrass (johnsongrass; [1]): 15 | Plant response rating, Johnsongrass (johnsongrass; [2]): 10 | Plant response rating, Waterhemp (waterhemp): 70 | Plant response rating (scale of 0 to 100 where 0 is no effect and 100 is complete control), Nutsedge, Yellow (nutsedge, yellow): 5 | Nutsedge, Yellow plant response rating (nutsedge, yellow): 0 | Plant response rating, Nutsedge, Yellow (nutsedge, yellow; [1]): 10 | Plant response rating, Nutsedge, Yellow (nutsedge, yellow; [2]): 5 | Plant response rating, Ragweed (ragweed; [1]): 40 | Plant response rating, Ragweed (ragweed; [2]): 15 | Pigweed plant response rating (pigweed): 60 | Plant response rating, Pigweed (pigweed; [1]): 70 | Plant response rating, Pigweed (pigweed; [2]): 70 | Plant response rating (scale of 0 to 100 where 0 is no effect and 100 is complete control), Chickweed (chickweed): 50 | Chickweed plant response rating (chickweed): 60 | Plant response rating, Chickweed (chickweed; [1]): 80 | Plant response rating, Chickweed (chickweed; [2]): 80 | Plant response rating (scale of 0 to 100 where 0 is no effect and 100 is complete control), Kochia (kochia): 80 | Kochia plant response rating (kochia): 85 | Plant response rating, Kochia (kochia; [1]): 90 | Plant response rating, Kochia (kochia; [2]): 90 | Plant response rating (scale of 0 to 100 where 0 is no effect and 100 is complete control), Barnyardgrass (barnyardgrass): 5 | Barnyardgrass plant response rating (barnyardgrass): 5 | Plant response rating, Barnyardgrass (barnyardgrass; [1]): 35 | Plant response rating, Barnyardgrass (barnyardgrass; [2]): 20 | Plant response rating (scale of 0 to 100 where 0 is no effect and 100 is complete control), Foxtail, Giant (foxtail, giant): 5 | Foxtail, Giant plant response rating (foxtail, giant): 25 | Plant response rating, Foxtail, Giant (foxtail, giant; [1]): 20 | Plant response rating, Foxtail, Giant (foxtail, giant; [2]): 20 | Plant response rating (scale of 0 to 100 where 0 is no effect and 100 is complete control), Morningglory (morningglory): 40 | Morningglory plant response rating (morningglory): 80 | Plant response rating, Morningglory (morningglory; [1]): 75 | Plant response rating, Morningglory (morningglory; [2]): 55 | Plant response rating (scale of 0 to 100 where 0 is no effect and 100 is complete control), Lambsquarters (lambsquarters): 60 | Lambsquarters plant response rating (lambsquarters): 65 | Plant response rating, Lambsquarters (lambsquarters; [1]): 75 | Plant response rating, Lambsquarters (lambsquarters; [2]): 75 | Plant response rating, Soybean (soybean): 95 | Soybean plant response rating (soybean): 80 | Plant response rating (scale of 0 to 100 where 0 is no effect and 100 is complete control), Oat, Wild (oat, wild): 5 | Oat, Wild plant response rating (oat, wild): 5 | Plant response rating, Oat, Wild (oat, wild; [1]): 15 | Plant response rating, Oat, Wild (oat, wild; [2]): 10 | Oilseed Rape plant response rating (oilseed rape): 5 | Plant response rating, Oilseed Rape (oilseed rape; [1]): 70 | Plant response rating, Oilseed Rape (oilseed rape; [2]): 10 | Plant response rating, Ryegrass, Italian (ryegrass, Italian; [1]): 5 | Plant response rating, Ryegrass, Italian (ryegrass, Italian; [2]): 5 | Plant response rating, Wheat (wheat): 5

Cc1cc(C(=O)NC(C)C)nn1Cc1ccnc(C(F)(F)F)c1 [Compound 197]
Plant response rating (scale of 0 to 100 where 0 is no effect and 100 is complete control), Blackgrass (blackgrass): 0 | Blackgrass plant response rating (blackgrass): 0 | Plant response rating, Blackgrass (blackgrass; [1]): 15 | Plant response rating, Blackgrass (blackgrass; [2]): 5 | Plant response rating (scale of 0 to 100 where 0 is no effect and 100 is complete control), Johnsongrass (johnsongrass): 0 | Johnsongrass plant response rating (johnsongrass): 65 | Plant response rating, Johnsongrass (johnsongrass; [1]): 5 | Plant response rating, Johnsongrass (johnsongrass; [2]): 0 | Plant response rating, Waterhemp (waterhemp): 55 | Plant response rating (scale of 0 to 100 where 0 is no effect and 100 is complete control), Nutsedge, Yellow (nutsedge, yellow): 0 | Nutsedge, Yellow plant response rating (nutsedge, yellow): 5 | Plant response rating, Nutsedge, Yellow (nutsedge, yellow; [1]): 5 | Plant response rating, Nutsedge, Yellow (nutsedge, yellow; [2]): 10 | Plant response rating, Ragweed (ragweed; [1]): 55 | Plant response rating, Ragweed (ragweed; [2]): 40 | Pigweed plant response rating (pigweed): 60 | Plant response rating, Pigweed (pigweed; [1]): 70 | Plant response rating, Pigweed (pigweed; [2]): 65 | Plant response rating (scale of 0 to 100 where 0 is no effect and 100 is complete control), Chickweed (chickweed): 50 | Chickweed plant response rating (chickweed): 55 | Plant response rating, Chickweed (chickweed; [1]): 80 | Plant response rating, Chickweed (chickweed; [2]): 60 | Plant response rating (scale of 0 to 100 where 0 is no effect and 100 is complete control), Kochia (kochia): 40 | Kochia plant response rating (kochia): 60 | Plant response rating, Kochia (kochia; [1]): 90 | Plant response rating, Kochia (kochia; [2]): 85 | Plant response rating (scale of 0 to 100 where 0 is no effect and 100 is complete control), Barnyardgrass (barnyardgrass): 0 | Barnyardgrass plant response rating (barnyardgrass): 0 | Plant response rating, Barnyardgrass (barnyardgrass; [1]): 10 | Plant response rating, Barnyardgrass (barnyardgrass; [2]): 5 | Plant response rating (scale of 0 to 100 where 0 is no effect and 100 is complete control), Foxtail, Giant (foxtail, giant): 0 | Foxtail, Giant plant response rating (foxtail, giant): 0 | Plant response rating, Foxtail, Giant (foxtail, giant; [1]): 10 | Plant response rating, Foxtail, Giant (foxtail, giant; [2]): 5 | Plant response rating (scale of 0 to 100 where 0 is no effect and 100 is complete control), Morningglory (morningglory): 75 | Morningglory plant response rating (morningglory): 75 | Plant response rating, Morningglory (morningglory; [1]): 98 | Plant response rating, Morningglory (morningglory; [2]): 65 | Plant response rating (scale of 0 to 100 where 0 is no effect and 100 is complete control), Lambsquarters (lambsquarters): 55 | Lambsquarters plant response rating (lambsquarters): 55 | Plant response rating, Lambsquarters (lambsquarters; [1]): 85 | Plant response rating, Lambsquarters (lambsquarters; [2]): 60 | Plant response rating, Soybean (soybean): 95 | Soybean plant response rating (soybean): 90 | Plant response rating (scale of 0 to 100 where 0 is no effect and 100 is complete control), Oat, Wild (oat, wild): 0 | Oat, Wild plant response rating (oat, wild): 0 | Plant response rating, Oat, Wild (oat, wild; [1]): 5 | Plant response rating, Oat, Wild (oat, wild; [2]): 5 | Oilseed Rape plant response rating (oilseed rape): 5 | Plant response rating, Oilseed Rape (oilseed rape; [1]): 10 | Plant response rating, Oilseed Rape (oilseed rape; [2]): 20 | Plant response rating, Ryegrass, Italian (ryegrass, Italian; [1]): 5 | Plant response rating, Ryegrass, Italian (ryegrass, Italian; [2]): 0 | Plant response rating, Wheat (wheat): 5 | Wheat plant response rating (wheat; scale 0 to 100): 5
